Measurements from patent US5756472A, “Antifungal agent obtained from hormonema” (Merck & Co., Inc., priority 1997, dated 1998).
Values after ≈ are worked out from the molar mass of the structure shown.

Legend:
[1] = test system: panel of fungi; assay: broth microdilution assay, comparison with amphotericin B; assay type: cell-based; details: MIC and MFC
Experimental: In the microbroth dilution assay, microorganisms were selected by streaking a yeast culture on Sabouraud dextrose agar (SDA) and incubating for 24-48 hours at 35°-37° C. Three to five characteristic colonies were selected and transferred to a fresh plate and incubated under similar conditions. From the regrowth, 3 to 5 colonies were selected and suspended in 10 milliliters of YM broth (Difco) and incubated for 4 hours at 35°-37° C. shaking at 225 rpm. The 4 hour broth cultures were adjusted optically to 86% transmission resulting in a concentration of 1-5×10^6 cfu/ml which was further diluted 1:100 in YNBD (yeast nitrogen base with 1% dextrose) to obtain a concentration of 1-5×10^4 cfu/ml for use as inocula. […]
The plates containing the diluted compounds were then inoculated with 75 μl/well of the appropriate microorganism and incubated for 48 hours at 35°-37° C. with MIC (minimum inhibitory concentration) determinations carried out after 24 hours of incubation (except Cryptococcus strains which are read at 48 hours). […]
After recording MICs at 24 hours, the microtiter plates were shaken gently to resuspend the cells. […] For Cryptococcus neoformans, SDA plates were inoculated at 48 hours after recording MICs and incubated 48 hours before reading the MFC. […]

[2] = test system: Aspergillus flavus, Fusarium oxysporum, Ustilago zeae and the like; assay: agar plate inhibition zone test against filamentous fungi; assay type: cell-based; details: agar plates, methanol solutions, 28° C. or 37° C., 24 hours
Experimental: The compound is also useful for inhibiting the growth of filamentous fungi. Such use may be illustrated in the following tests with Aspergillus flavus, Fusarium oxysporum, Ustilago zeae and the like. Inocula for filamentous fungi are prepared by scraping the surface of stock plates maintained on potato dextrose agar with a moistened sterile dacron swab. The spores and mycelia are then suspended in 10 milliliters of sterile potato dextrose broth and adjusted to 70 percent transmission at 660 nm. The samples to be tested for production of antifungal agent are applied directly to the agar plates as methanol solutions. When the sample to be tested is crude broth, it may be centrifuged prior to application. The assay plates are then incubated at either 28° C. or 37° C. for 24 hours. Following incubation, the inhibition zones are measured. Effects on growth are also noted as to appearance.

[3] = test system: Candida pseudotropicalis (MY2099); assay: broth microdilution assay (MIC/MFC); assay type: cell-based; details: Kluyveromyces marxianus, 24 hours, 35°-37° C.
Experimental: (§1) In the microbroth dilution assay, microorganisms were selected by streaking a yeast culture on Sabouraud dextrose agar (SDA) and incubating for 24-48 hours at 35°-37° C. Three to five characteristic colonies were selected and transferred to a fresh plate and incubated under similar conditions. From the regrowth, 3 to 5 colonies were selected and suspended in 10 milliliters of YM broth (Difco) and incubated for 4 hours at 35°-37° C. shaking at 225 rpm. The 4 hour broth cultures were adjusted optically to 86% transmission resulting in a concentration of 1-5×10^6 cfu/ml which was further diluted 1:100 in YNBD (yeast nitrogen base with 1% dextrose) to obtain a concentration of 1-5×10^4 cfu/ml for use as inocula.
(§2) The test compound was dissolved at […] in 10% DMSO and diluted 2× into the first well to achieve a concentration of 256 μg/ml at 5% DMSO in the first well. Compounds are subsequently serially diluted 2× and cell suspension is added to each well resulting in an additional 2× dilution of compound. 75 μl of said solution is delivered to each well in column 1 of a 96-well, U-bottomed plate. The compounds in column 1 were then serially diluted two-fold to yield concentrations from 128 μg/ml to 0.03 μg/ml.
(§3) The plates containing the diluted compounds were then inoculated with 75 μl/well of the appropriate microorganism and incubated for 48 hours at 35°-37° C. with MIC (minimum inhibitory concentration) determinations carried out after 24 hours of incubation (except Cryptococcus strains which are read at 48 hours). Growth and sterility controls for each organism and sterility checks for the compounds also were carried out.
(§4) After recording MICs at 24 hours, the microtiter plates were shaken gently to resuspend the cells. A 1.5 μl sample was transferred from each well of the 96-well plate to a single reservoir inoculum plate containing SDA. The inoculated SDA and corresponding microtiter plates were incubated for 24 hours at 35°-37° C. For Cryptococcus neoformans, SDA plates were inoculated at 48 hours after recording MICs and incubated 48 hours before reading the MFC. MFC is the lowest concentration of compound at which either no growth or growth of <4 colonies occur.

[4] = test system: Candida albicans (CLY539); assay: broth microdilution assay (MIC/MFC); assay type: cell-based; details: 24 hours, 35°-37° C.
Experimental: as §1, §2, §3, §4

[5] = test system: Candida parapsilosis (MY1010); assay: broth microdilution assay (MIC/MFC); assay type: cell-based; details: Lodderomyces parapsilosis, 24 hours, 35°-37° C.
Experimental: as §1, §2, §3, §4

[6] = test system: Cryptococcus neoformans (MY2062); assay: broth microdilution assay (MIC/MFC); assay type: cell-based
Experimental: as §1, §2, §3, §4

[7] = test system: Candida albicans (MY1055); assay: broth microdilution assay (MIC/MFC); assay type: cell-based; details: 24 hours, 35°-37° C.
Experimental: as §1, §2, §3, §4

[8] = test system: Candida albicans (CA2); assay: broth microdilution assay (MIC/MFC); assay type: cell-based; details: 24 hours, 35°-37° C.
Experimental: as §1, §2, §3, §4

[9] = test system: Candida krusei; assay: broth microdilution assay (MIC/MFC); assay type: cell-based; details: Pichia kudriavzevii, 24 hours, 35°-37° C.
Experimental: as §1, §2, §3, §4

[10] = test system: Saccharomyces cerevisiae (MY2140); assay: broth microdilution assay (MIC/MFC); assay type: cell-based; details: 24 hours, 35°-37° C.
Experimental: as §1, §2, §3, §4

[11] = test system: Candida glabrata (MY1381); assay: broth microdilution assay (MIC/MFC); assay type: cell-based; details: Nakaseomyces glabratus, 24 hours, 35°-37° C.
Experimental: as §1, §2, §3, §4

[12] = test system: Candida guillermondii (MY1019); assay: broth microdilution assay (MIC/MFC); assay type: cell-based; details: 24 hours, 35°-37° C.
Experimental: as §1, §2, §3, §4

[13] = test system: Cryptococcus neoformans (MY2061); assay: broth microdilution assay (MIC/MFC); assay type: cell-based
Experimental: as §1, §2, §3, §4

[14] = test system: Candida tropicalis (MY1124); assay: broth microdilution assay (MIC/MFC); assay type: cell-based; details: 24 hours, 35°-37° C.
Experimental: as §1, §2, §3, §4

[15] = test system: Candida tropicalis (MY1012); assay: broth microdilution assay (MIC/MFC); assay type: cell-based; details: 24 hours, 35°-37° C.
Experimental: as §1, §2, §3, §4

[16] = interconversion of the two diastereomers; assay type: physicochemical; details: normal temperatures
[17] = test system: Aspergillus fumigatus (MY5668); assay: broth microdilution assay (MIC/MEC); assay type: cell-based; details: 24 hours
Experimental: as §1, §2, §3
(§5) No MFC values are indicated for Aspergillus fumigatus since colony counts are unreliable with filamentous species. Instead, a Minimum Effective Concentration (MEC) is reported. The MEC is defined as the lowest concentration of drug which effects a severe morphological change in the cells. The MEC is scored macroscopically by direct observation of the plate wells after 24 hours and reflects microscopic alterations in cell morphology (Kurtz et al, AAC 1994 38:1480-1489).

[18] = test system: Aspergillus fumigatus (MY4839); assay: broth microdilution assay (MIC/MEC); assay type: cell-based; details: 24 hours
Experimental: as §1, §2, §3, §5

[19] = read-out: MIC (minimum inhibitory concentration)
[20] = SDA, no growth or <4 colonies, read-out: MFC (minimum fungicidal concentration)
[21] = SDA inoculated at 48 hours, incubated 48 hours, no growth or <4 colonies, read-out: MFC (minimum fungicidal concentration)
[22] = read at 48 hours, 35°-37° C., read-out: MIC (minimum inhibitory concentration)
[23] = 35°-37° C., read-out: MIC (minimum inhibitory concentration)
[24] = lowest concentration effecting severe morphological change, read-out: MEC (Minimum Effective Concentration)

CC(=O)OC1CC23C4=CCC5(C)C(C(=O)O)C(C)(C(C)C(C)C)CCC5(C)C4CCC2C(C)(COC3O)C1OC1OC(CO)C(O)C(O)C1O (stereo not drawn) [Compound I]
effectiveness against a panel of fungi, compared with amphotericin B [1]: at concentrations comparable to an established antifungal agent, amphotericin B
inhibition of growth of filamentous fungi [2]: effectively inhibit growth of the fungal organisms
MIC [3, 19]: 0.5 µg/mL (≈ 0.705 µM)
MFC [3, 20]: 1 µg/mL (≈ 1.41 µM)
MIC [4, 19]: 0.5 µg/mL (≈ 0.705 µM)
MFC [4, 20]: 0.5 µg/mL (≈ 0.705 µM)
MIC [5, 19]: 0.25 µg/mL (≈ 0.353 µM)
MFC [5, 20]: 0.25 µg/mL (≈ 0.353 µM)
MFC [6, 21]: 128 µg/mL (≈ 181 µM)
MIC [6, 22]: 32 µg/mL (≈ 45.1 µM)
MIC [7, 19]: 0.5 µg/mL (≈ 0.705 µM)
MFC [7, 20]: 0.25 µg/mL (≈ 0.353 µM)
MIC [8, 19]: > 128 µg/mL
MFC [8, 20]: > 128 µg/mL
MIC [9, 19]: 4 µg/mL (≈ 5.64 µM)
MFC [9, 20]: 1 µg/mL (≈ 1.41 µM)
MIC [10, 19]: 2 µg/mL (≈ 2.82 µM)
MFC [10, 20]: 2 µg/mL (≈ 2.82 µM)
MIC [11, 19]: 1 µg/mL (≈ 1.41 µM)
MFC [11, 20]: 0.5 µg/mL (≈ 0.705 µM)
MIC [12, 19]: 1 µg/mL (≈ 1.41 µM)
MFC [12, 20]: 2 µg/mL (≈ 2.82 µM)
MFC [13, 21]: 32 µg/mL (≈ 45.1 µM)
MIC [13, 22]: 32 µg/mL (≈ 45.1 µM)
MIC [14, 19]: 16 µg/mL (≈ 22.6 µM)
MFC [14, 20]: 16 µg/mL (≈ 22.6 µM)
MIC [15, 19]: 1 µg/mL (≈ 1.41 µM)
MFC [15, 20]: 1 µg/mL (≈ 1.41 µM)
reequilibration of separated diastereomers [16]: reequilibrate at normal temperatures
MIC [17, 23]: 32 µg/mL (≈ 45.1 µM)
minimal effective concentration [17, 24]: 0.031 µg/mL
MIC [18, 23]: 64 µg/mL (≈ 90.3 µM)
minimal effective concentration [18, 24]: 0.031 µg/mL
